Values joined by “and” are separate entries in the source; they are usually repeats but may differ in a detail not shown here. Equal entries are not always repeated. Where two headings read alike, the source gives them in different places. Marks after values point to notes of the source that are not given here.
Legend:
mice = test: Fatalities and behavioral effects after i.p. administration; conditions: 100 mg kg^-1
[1] = Brain and plasma concentrations in mice after intraperitoneal administration (LC-MS-MS), non-compartmental analysis; format: in vivo; conditions: for [drug],brain (free base equivalent) / [drug],plasma (free base equivalent): listed as JDTic.2HCl.H2O
[2] = 0.5 h, 10 mg/kg i.p., individual mice, 10 mg/kg
[3] = 1 h, 10 mg/kg i.p., individual mice, 10 mg/kg
[4] = 2 h, 10 mg/kg i.p., individual mice, 10 mg/kg
[5] = 4 h, 10 mg/kg i.p., individual mice, 10 mg/kg
[6] = 24 h, 10 mg/kg i.p., individual mice, 10 mg/kg

CC(C)[C@@H](CN1CC[C@@](C)(c2cccc(O)c2)[C@@H](C)C1)NC(=O)[C@H]1Cc2ccc(O)cc2CN1 [JDTic, (3R)-7-Hydroxy-N-((1S)-1-{[(3R,4R)-4-(3-hydroxyphenyl)-3,4-dimethyl-1-piperidinyl]methyl}-2-methylpropyl)-1,2,3,4-tetrahydro-3-isoquinolinecarboxamide]
Behavioral effects observed (mice): Only mild behavioral effects, such as hiccup-like spasms and shivering
Fatalities (mice): no fatalities
Time of maximal mean plasma level ([1]; 10 mg kg^-1 i.p., mice): approximately 30 minutes
[drug],brain (free base equivalent) [1, 2]: 66.3 ng/g and 60.3 ng/g and 155 ng/g and 37.5 ng/g and 49.5 ng/g and 57.9 ng/g
[drug],plasma (free base equivalent) [1, 2]: 263 ng/mL and 237 ng/mL and 330 ng/mL and 248 ng/mL and 145 ng/mL
[drug],brain (free base equivalent) [1, 3]: 61.5 ng/g and 45.3 ng/g and 38.1 ng/g and 116 ng/g and 49.2 ng/g and 56.7 ng/g
[drug],plasma (free base equivalent) [1, 3]: 152 ng/mL and 270 ng/mL and 114 ng/mL and 126 ng/mL and 130 ng/mL and 134 ng/mL
[drug],brain (free base equivalent) [1, 4]: 48.3 ng/g and 36.9 ng/g
[drug],plasma (free base equivalent) [1, 4]: 57.3 ng/mL and 71 ng/mL
[drug],brain (free base equivalent) [1, 5]: 80.4 ng/g and 46.2 ng/g
[drug],plasma (free base equivalent) [1, 5]: 69.6 ng/mL and 40.3 ng/mL and 30 ng/mL
[drug],brain (free base equivalent) [1, 6]: 30.3 ng/g and 32.1 ng/g
[drug],plasma (free base equivalent) [1, 6]: <4 ng/mL
[drug],brain (free base equivalent) ([1]; 48 h, 10 mg/kg i.p., individual mice, 10 mg/kg): 936* ng/g and 32.7 ng/g and 16.7 ng/g
[drug],brain (free base equivalent) ([1]; 168 h, 10 mg/kg i.p., individual mice, 10 mg/kg): <12 ng/g (2×) and 43.8 ng/g
Peak unbound brain level ([1]; at 30 minutes, 10 mg kg^-1 i.p., estimate): up to 4 nM
AUMC 0-inf_obs ([1]; brain NCA, 10 mg/kg i.p.): 3158084 ng/ml*h^2
Tlag ([1]; brain NCA, 10 mg/kg i.p.): 0 h
C max,brain ([1]; brain, 10 mg kg^-1 i.p., mice): 71 ng/mL
Decline of mean plasma concentration from peak ([1]; by 24 hours, 10 mg kg^-1 i.p.): at least 98%
concentration at 4 h ([1]; male, Swiss-Webster (Crl:CFW(SW)), mouse, brain, intraperitoneal, 10 mg/kg, 4 h, 10 mg/kg, read-out: Conc (brain, NCA input)): 62.4 ng/mL
concentration at 24 h ([1]; male, Swiss-Webster (Crl:CFW(SW)), mouse, brain, intraperitoneal, 10 mg/kg, 24 h, 10 mg/kg, read-out: Conc (brain, NCA input)): 30.9 ng/mL
concentration at 48 h ([1]; male, Swiss-Webster (Crl:CFW(SW)), mouse, brain, intraperitoneal, 10 mg/kg, 48 h, 10 mg/kg, read-out: Conc (brain, NCA input)): 24.7 ng/mL
concentration at 168 h ([1]; male, Swiss-Webster (Crl:CFW(SW)), mouse, brain, intraperitoneal, 10 mg/kg, 168 h, 10 mg/kg, read-out: Conc (brain, NCA input)): 18.6 ng/mL
concentration at 4 h ([1]; male, Swiss-Webster (Crl:CFW(SW)), mouse, brain, ip, 10 mg/kg, 4 h, 10 mg/kg i.p., individual mice, read-out: [drug],brain (free base equivalent)): 60.6 ng/g
concentration at 4 h ([1]; male, Swiss-Webster (Crl:CFW(SW)), mouse, brain, ip, 10 mg/kg, 4 h, 10 mg/kg i.p., read-out: mean (brain)): 62.4 ng/g
concentration at 24 h ([1]; male, Swiss-Webster (Crl:CFW(SW)), mouse, brain, ip, 10 mg/kg, 24 h, 10 mg/kg i.p., individual mice, read-out: [drug],brain (free base equivalent)): 30.3 ng/g
concentration at 24 h ([1]; male, Swiss-Webster (Crl:CFW(SW)), mouse, brain, ip, 10 mg/kg, 24 h, 10 mg/kg i.p., read-out: mean (brain)): 30.9 ng/g
concentration at 48 h ([1]; male, Swiss-Webster (Crl:CFW(SW)), mouse, brain, ip, 10 mg/kg, 48 h, 10 mg/kg i.p., outlier excluded, read-out: mean (brain)): 24.7 ng/g
concentration at 168 h ([1]; male, Swiss-Webster (Crl:CFW(SW)), mouse, brain, ip, 10 mg/kg, 168 h, 10 mg/kg i.p., <MRC substituted by MRC/2, read-out: mean (brain)): 18.6 ng/g
AUC(0-inf) ([1]; male, Swiss-Webster (Crl:CFW(SW)), mouse, brain, ip, 10 mg/kg, brain NCA, 10 mg/kg i.p., read-out: AUC 0-inf_obs): 10300 ng·h/mL
Kp uu ([1]; male, Swiss-Webster (Crl:CFW(SW)), mouse, brain/plasma (unbound), ip, supplement, 10 mg/kg i.p., read-out: Kp,uu,brain (AUC0–∞,brain,u / AUC0–∞,p,u)): < 1.42
Kp ([1]; male, Swiss-Webster (Crl:CFW(SW)), mouse, brain/plasma, ip, 10 mg/kg, supplement, 10 mg/kg i.p., read-out: Kp,brain (AUC0–∞,brain / AUC0–∞,p)): 11.6
MRT inf ([1]; male, Swiss-Webster (Crl:CFW(SW)), mouse, ip, brain NCA, 10 mg/kg i.p., read-out: MRT 0-inf_obs): 12.8 days
Kp uu ([1]; male, Swiss-Webster, mouse, brain and plasma (unbound), ip, 10 mg kg^-1, 10 mg kg^-1 i.p., mice, read-out: K p,uu,brain (AUC0–∞,brain,u/AUC0–∞,p,u)): ≤ 1.4
Kp uu ([1]; male, Swiss-Webster, mouse, brain and plasma (unbound), ip, 10 mg/kg, 10 mg kg^-1 i.p., mice, read-out: Cmax,brain,u/Cmax,p,u): < 0.04
Kp ([1]; male, Swiss-Webster, mouse, brain and plasma, ip, 10 mg kg^-1, 10 mg kg^-1 i.p., mice, read-out: K p,brain (AUC0–∞,brain/AUC0–∞,p)): 11.6
Kp ([1]; male, Swiss-Webster, mouse, brain and plasma, ip, 10 mg/kg, 10 mg kg^-1 i.p., mice, read-out: Cmax,brain/Cmax,p): 0.29
concentration at 0.5 h ([1]; male, Swiss-Webster, mouse, brain, intraperitoneal, 10 mg/kg, 0.5 h, 10 mg/kg, read-out: Conc (brain, NCA input)): 71.1 ng/mL
concentration at 1 h ([1]; male, Swiss-Webster, mouse, brain, intraperitoneal, 10 mg/kg, 1 h, 10 mg/kg, read-out: Conc (brain, NCA input)): 61.1 ng/mL
concentration at 2 h ([1]; male, Swiss-Webster, mouse, brain, intraperitoneal, 10 mg/kg, 2 h, 10 mg/kg, read-out: Conc (brain, NCA input)): 38.4 ng/mL
half-life ([1]; male, Swiss-Webster, mouse, brain, ip, 10 mg/kg, 10 mg kg^-1 i.p., mice, read-out: Terminal half-life in brain (converted)): ~9 days
concentration at 0.5 h ([1]; male, Swiss-Webster, mouse, brain, ip, 10 mg/kg, 0.5 h, 10 mg/kg i.p., read-out: mean (brain)): 71.1 ng/g
concentration at 1 h ([1]; male, Swiss-Webster, mouse, brain, ip, 10 mg/kg, 1 h, 10 mg/kg i.p., read-out: mean (brain)): 61.1 ng/g
concentration at 2 h ([1]; male, Swiss-Webster, mouse, brain, ip, 10 mg/kg, 2 h, 10 mg/kg i.p., individual mice, read-out: [drug],brain (free base equivalent)): 30 ng/g
